What was measured:
[1] = Growth rate of young rats upon oral administration; type: in vivo; conditions: young rats starting at 20 days of age, 5 days/week at various dosages (FIG. 1)
Experimental: FIG. 1 is a graph showing growth rates of young rats (starting at 20 days of age) upon oral administration of N-(4-{[4-(3,4-dichlorophenyl)-1,3-thiazol-2-yl]amino}phenyl)acetamide hydrobromide, whereby the effect on growth rate was insignificant, whereby the drug was administered 5 days/week at various dosages, whereby weight was measured every day during the treatment regimen (Monday-Friday), whereby the data is shown in three groups to compensate for variations in growth rate as the animals aged, whereby the listed days represent the number of days after the initial first administration, and whereby the bars represent the average growth rate±Standard deviation.
Mammalian species (i.e., rats) were used. Rats were fed a standard diet (3.5% fat, <0.02% cholesterol). Weaned rats were grouped into treated and controls. Rats were chosen as the testing animal so that 0.5 ml of blood samples could be taken for testing. Rats were anesthetized first in an induction chamber with isoflurane and oxygen (100%). Once anesthetized rats were positioned dorsally for the blood draw from the jugular or ventral tail vein. […]
N-(4-{[4-(3,4-dichlorophenyl)-1,3-thiazol-2-yl]amino}phenyl)acetamide hydrobromide was mixed with DMSO (solvent) in increasing dosages, which were feed to laboratory rats. […] Daily observations were recorded concerning (i) weight changes and (ii) mortality. […]

rats [2] = assay: Total serum cholesterol levels in rats; type: in vivo, rat; conditions: oral, varying concentrations for 5 days, all treated animals (FIG. 2)
Experimental: (§1) Mammalian species (i.e., rats) were used. Rats were fed a standard diet (3.5% fat, <0.02% cholesterol). Weaned rats were grouped into treated and controls. Rats were chosen as the testing animal so that 0.5 ml of blood samples could be taken for testing. Rats were anesthetized first in an induction chamber with isoflurane and oxygen (100%). Once anesthetized rats were positioned dorsally for the blood draw from the jugular or ventral tail vein. An anesthetic nose-cone was placed on the nose of the rat allowing isoflurane and oxygen (100%) to be delivered through a Bain circuit. After obtaining blood, the rats were allowed to recover in a shoebox cage with a heat lamp positioned over the top of the cage. Once the rats were awake and moving freely around the recovery cage, they are placed back in their normal cages. Total time for procedure is ˜15-20 minutes per rat.
N-(4-{[4-(3,4-dichlorophenyl)-1,3-thiazol-2-yl]amino}phenyl)acetamide hydrobromide was mixed with DMSO (solvent) in increasing dosages, which were feed to laboratory rats. Rats received the preparations via oral drops. Daily observations were recorded concerning (i) weight changes and (ii) mortality. Blood samples were taken every three weeks for testing cholesterol levels and for testing Alanine Aminotransferase (ALT) for liver function. […]

rats [3] = assay: Serum ALT levels in rats (liver function); type: in vivo; conditions: oral, various dosages for 5 days (FIG. 3)
Experimental: as §1
N-(4-{[4-(3,4-dichlorophenyl)-1,3-thiazol-2-yl]amino}phenyl)acetamide hydrobromide was mixed with DMSO (solvent) in increasing dosages, which were feed to laboratory rats. Rats received the preparations via oral drops. Daily observations were recorded concerning (i) weight changes and (ii) mortality. […]
The vertebrate SCP-2 is involved in cholesterol metabolism, therefore, cholesterol homeostasis is advantageously monitored when SCP-2 inhibitors are tested in mammalian species. […]

SMILES: Br.CC(=O)Nc1ccc(Nc2nc(-c3ccc(Cl)c(Cl)c3)cs2)cc1 [N-(4-{[4-(3,4-dichlorophenyl)-1,3-thiazol-2-yl]amino}phenyl)acetamide hydrobromide]
- effect on growth rate [1]: insignificant
- total serum cholesterol levels (rats [2]): significant decrease
- serum ALT levels, control (0 mg/kg) vs treated animals (rats [3]): no significant difference

Source: patent publication US20080194658A1, “Sterol Carrier Protein-2 Inhibitors for Lowering Cholesterol and Triglyceride Levels in Mammals” (priority 2006, published 2008)
